According to patent publication US8975417B2, “Pyrazolopyrrolidine derivatives and their use in the treatment of disease” (Novartis AG, priority 2013, dated 2015):
pIC50: −log10 of the molar value.

Assays:
His-Brd4(44-477) = His-Brd4(44-477) (Homo sapiens (Human), UniProt O60885); test: TR-FRET in-vitro binding assay for BRD4; details: biochemical
Method in brief: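 Eight-point dilution series tested against in-house His-BRD2(60-472), BRD3(20-477) or BRD4(44-477) (45 nM in dispensed solution) binding acetyl-histone H4 (AcK5,8,12,16; 60 nM in dispensed solution). Incubation 35 min at 30 °C, pH 7.5 HEPES buffer; detection by TR-FRET using Eu-anti-His6 and streptavidin-allophycocyanin.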

[1] = molecular target: nuclear BRD4-NUT foci in HCC2494 NUT midline carcinoma cells (Homo sapiens (Human), UniProt O60885+Q86Y26); test: Nut-foci formation assay; format: cell-based; details: 24 hours, read-out: HCS Brd4-NUT IC50
Method in brief: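 Read-out is number and intensity of nuclear NUT foci by immunofluorescence imaging, relative to 0.1% DMSO set as 100. Compounds were tested as 3-fold series starting at 10 μM on HCC2494 NUT midline carcinoma cells for 24 h. Four-parameter fitting gave IC50.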

[2] = molecular target: His-CREBBP (1081-1197) bromodomain (Homo sapiens (Human), UniProt Q92793); test: AlphaScreen in-vitro binding assay for CREBBP; details: biochemical
His-CREBBP (1081-1197) bromodomain, sequence (Q92793 1081-1197): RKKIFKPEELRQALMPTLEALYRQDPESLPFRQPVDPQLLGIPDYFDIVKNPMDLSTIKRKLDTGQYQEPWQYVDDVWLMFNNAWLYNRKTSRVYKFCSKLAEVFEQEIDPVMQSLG
Method in brief: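 Ni-chelate acceptor and streptavidin donor beads (45 µg/mL each, in 50 mM HEPES pH 7.5, 150 mM NaCl, 0.02% BSA) were then added for 60 min at room temperature. IC50 came from 8-point non-linear regression.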

| Structure (SMILES) | pIC50 (His-Brd4(44-477)) | pIC50 [1] | pIC50 [2] |
| --- | --- | --- | --- |
| CNC(=O)n1nc(C)c2c1C(=O)N(c1cc(C)c(=O)n(C)c1)C2c1ccc(Cl)cc1 (stereo not drawn) [Example 143, 4-(4-chlorophenyl)-5-(1,5-dimethyl-6-oxo-1,6-dihydropyridin-3-yl)-N,3-dimethyl-6-oxo-5,6-dihydropyrrolo[3,4-c]pyrazole-1(4H)-carboxamide] | 6.52 | 6.69 | < 4.43 |
| CNC(=O)n1nc(C)c2c1C(=O)N(c1cc(C)c3nnc(C)n3c1)C2c1ccc(Cl)cc1 (stereo not drawn) [Example 145, 4-(4-chlorophenyl)-5-(3,8-dimethyl-[1,2,4]triazolo[4,3-a]pyridin-6-yl)-N,3-dimethyl-6-oxo-5,6-dihydropyrrolo[3,4-c]pyrazole-1(4H)-carboxamide] | 6.85 | 6.97 | < 4.43 |
| CCc1c2c(nn1C(=O)N(C)C)C(=O)N(c1cc(C)c(=O)n(C)c1)C2c1ccc(Cl)cc1 (stereo not drawn) [Example 148, 4-(4-chlorophenyl)-5-(1,5-dimethyl-6-oxo-1,6-dihydropyridin-3-yl)-3-ethyl-N,N-dimethyl-6-oxo-5,6-dihydropyrrolo[3,4-c]pyrazole-2(4H)-carboxamide] | 6.57 | 6.93 | 5.39 |
| Cc1nn(C(=O)N(C)C)c2c1[C@@H](c1ccc(Cl)cc1)N(c1cc(C)c3nnc(C)n3c1)C2=O [Example 149, (R)-4-(4-chlorophenyl)-5-(3,8-dimethyl-[1,2,4]triazolo[4,3-a]pyridin-6-yl)-N,N,3-trimethyl-6-oxo-5,6-dihydropyrrolo[3,4-c]pyrazole-1(4H)-carboxamide] | 7.52 | 7.45 | 5.16 |
| Cc1cc(N2C(=O)c3nn(C(=O)N(C)C)c(C)c3[C@H]2c2ccc(Cl)cc2)cn2c(C)nnc12 [Example 150, (R)-4-(4-chlorophenyl)-5-(3,8-dimethyl-[1,2,4]triazolo[4,3-a]pyridin-6-yl)-N,N,3-trimethyl-6-oxo-5,6-dihydropyrrolo[3,4-c]pyrazole-2(4H)-carboxamide] | 6.96 | 7.56 | 5.34 |
| Cc1nn(C2CNC2)c2c1C(c1ccc(Cl)cc1)N(c1cc(C)c3nnc(C)n3c1)C2=O (stereo not drawn) [Example 151, 1-(azetidin-3-yl)-4-(4-chlorophenyl)-5-(3,8-dimethyl-[1,2,4]triazolo[4,3-a]pyridin-6-yl)-3-methyl-4,5-dihydropyrrolo[3,4-c]pyrazol-6(1H)-one] | 6.89 | 6.26 | < 4.43 |
| Cc1cc(N2C(=O)c3nn(C4CNC4)c(C)c3C2c2ccc(Cl)cc2)cn2c(C)nnc12 (stereo not drawn) [Example 152, 2-(azetidin-3-yl)-4-(4-chlorophenyl)-5-(3,8-dimethyl-[1,2,4]triazolo[4,3-a]pyridin-6-yl)-3-methyl-4,5-dihydropyrrolo[3,4-c]pyrazol-6(2H)-one] | 7.11 | 5.87 | 5.51 |
| CC(=O)N1CC(n2nc(C)c3c2C(=O)N(c2cc(C)c(=O)n(C)c2)C3c2ccc(Cl)cc2)C1 (stereo not drawn) [Example 153, 1-(1-acetylazetidin-3-yl)-4-(4-chlorophenyl)-5-(1,5-dimethyl-6-oxo-1,6-dihydropyridin-3-yl)-3-methyl-4,5-dihydropyrrolo[3,4-c]pyrazol-6(1H)-one] | 6.85 | 6.82 | 4.92 |

Results, then the compound that gave them:

| pIC50 (His-Brd4(44-477)) | pIC50 [1] | pIC50 [2] | Structure (SMILES) |
| --- | --- | --- | --- |
| 7.04 | 6.68 | < 4.43 | CC(=O)N1CC(n2nc(C)c3c2C(=O)N(c2cc(C)c4nnc(C)n4c2)C3c2ccc(Cl)cc2)C1 (stereo not drawn) [Example 154, 1-(1-acetylazetidin-3-yl)-4-(4-chlorophenyl)-5-(3,8-dimethyl-[1,2,4]triazolo[4,3-a]pyridin-6-yl)-3-methyl-4,5-dihydropyrrolo[3,4-c]pyrazol-6(1H)-one] |
| 7.06 | 6.97 | 4.96 | CCOC(=O)N1CC(n2nc(C)c3c2C(=O)N(c2cc(C)c(=O)n(C)c2)C3c2ccc(Cl)cc2)C1 (stereo not drawn) [Example 155, Ethyl 3-(4-(4-chlorophenyl)-5-(1,5-dimethyl-6-oxo-1,6-dihydropyridin-3-yl)-3-methyl-6-oxo-5,6-dihydropyrrolo[3,4-c]pyrazol-1(4H)-yl)azetidine-1-carboxylate] |
| 7.31 | 7.36 | < 4.43 | CCOC(=O)N1CC(n2nc(C)c3c2C(=O)N(c2cc(C)c4nnc(C)n4c2)C3c2ccc(Cl)cc2)C1 (stereo not drawn) [Example 156, Ethyl 3-(4-(4-chlorophenyl)-5-(3,8-dimethyl-[1,2,4]triazolo[4,3-a]pyridin-6-yl)-3-methyl-6-oxo-5,6-dihydropyrrolo[3,4-c]pyrazol-1(4H)-yl)azetidine-1-carboxylate] |
| 7.11 | 7.00 | < 4.43 | Cc1nn(C2CN(C)C2)c2c1C(c1ccc(Cl)cc1)N(c1cc(C)c3nnc(C)n3c1)C2=O (stereo not drawn) [Example 157, 4-(4-chlorophenyl)-5-(3,8-dimethyl-[1,2,4]triazolo[4,3-a]pyridin-6-yl)-3-methyl-1-(1-methylazetidin-3-yl)-4,5-dihydropyrrolo[3,4-c]pyrazol-6(1H)-one] |
| 7.09 | 6.99 | 5.48 | Cc1cc(N2C(=O)c3nn(C4CN(C)C4)c(C)c3C2c2ccc(Cl)cc2)cn2c(C)nnc12 (stereo not drawn) [Example 158, 4-(4-chlorophenyl)-5-(3,8-dimethyl-[1,2,4]triazolo[4,3-a]pyridin-6-yl)-3-methyl-2-(1-methylazetidin-3-yl)-4,5-dihydropyrrolo[3,4-c]pyrazol-6(2H)-one] |
| 7.40 | 7.48 | 4.92 | Cc1nn(C[C@H](O)C(F)(F)F)c2c1[C@@H](c1ccc(Cl)cc1)N(c1cc(C)c3nnc(C)n3c1)C2=O [Example 167, (R)-4-(4-chlorophenyl)-5-(3,8-dimethyl-[1,2,4]triazolo[4,3-a]pyridin-6-yl)-3-methyl-1-((S)-3,3,3-trifluoro-2-hydroxypropyl)-4,5-dihydropyrrolo[3,4-c]pyrazol-6(1H)-one] |
